Experimental data reported in article PMC9597602, “Metal Complexes as Antifungals? From a Crowd-Sourced Compound Library to the First In Vivo Experiments” (JACS Au, 2022).
Values joined by “and” are separate entries in the source; they are usually repeats but may differ in a detail not shown here. Equal values may be shown once. Read-outs that look alike come from different tables or passages of the source.

How the values were obtained:
[1] = tested on: methicillin-resistant Staphylococcus aureus ATCC 43300; experiment: CO-ADD antibacterial MIC assay; type: cell-based
Procedure: (§1) For the all the bacterial assays, each bacterial strain was cultured in cation-adjusted Mueller Hinton broth (CAMHB; Bacto Laboratories 212322) at 37 °C overnight. A sample of each culture was then diluted 40-fold in fresh CAMHB and incubated at 37 °C for 1.5–3 h. The resultant mid-log phase cultures were diluted with CAMHB (CFU/mL measured by OD600) and then added to each well of the compound-containing plates (384-well non-binding surface (NBS) plates; Corning CLS3640), giving a cell density of 5 × 10^5 CFU/mL and a total volume of 50 μL. Plates were covered and incubated at 37 °C for 18 h without shaking. Inhibition of bacterial growth was determined by measuring the absorbance at 600 nm (OD600) using media only as negative control and bacteria without inhibitors as positive control. MIC values were determined as the lowest concentration at which the growth was inhibited by ≥80% (equivalent to no visible growth by the eye). Colistin sulfate (Sigma C4461) and vancomycin HCl (Sigma 861987) were used as internal controls on each plate for Gram-negative and Gram-positive bacteria, respectively. All compounds were tested as two technical replicates in two independent biological assays, n = 4 final data.

[2] = tested on: Candida albicans ATCC 90028 NCCLS11; experiment: Antifungal MIC assay; type: cell-based; details: for MIC: Candida albicans, ATCC90028, comparator antifungals, read-out: MIC* Candida albicans ATCC 90028
Procedure: For the fungal assays, both fungi (yeast) strains were cultured for 3 days on Yeast Extract-Peptone Dextrose (YPD; Becton Dickinson 242720) agar at 30 °C. A yeast suspension of 1 × 10^6 to 5 × 10^6 CFU/mL (as determined by OD530) was prepared from five colonies from the agar plates, subsequently diluted with Yeast Nitrogen Base media (YNB; Becton Dickinson 233520), and added to each well of the compound containing plates (384-well plates, NBS; Corning CLS3640), giving a final cell density of 2.5 × 10^3 CFU/mL and a total volume of 50 μL. Plates were covered and incubated at 35 °C for 36 h without shaking. […] […], equivalent to ″optically clear-to-slightly hazy″ or MIC score of 0–1 as per CLSI guidelines M27 Reference Method for Broth Dilution Antifungal Susceptibility Testing of Yeasts. […] Fluconazole (Sigma F8929) was used as internal control on each plate for all strains. All compounds were tested as two technical replicates in two to four independent biological assays, n = 4–8 final data.

[3] = tested on: Cryptococcus neoformans H99 ATCC 208821 type strain; experiment: Antifungal MIC assay; type: cell-based; details: for MIC: Cryptococcus neoformans, ATCC208821, read-out: MIC* Cryptococcus neoformans ATCC 208821
Procedure: For the fungal assays, both fungi (yeast) strains were cultured for 3 days on Yeast Extract-Peptone Dextrose (YPD; Becton Dickinson 242720) agar at 30 °C. A yeast suspension of 1 × 10^6 to 5 × 10^6 CFU/mL (as determined by OD530) was prepared from five colonies from the agar plates, subsequently diluted with Yeast Nitrogen Base media (YNB; Becton Dickinson 233520), and added to each well of the compound containing plates (384-well plates, NBS; Corning CLS3640), giving a final cell density of 2.5 × 10^3 CFU/mL and a total volume of 50 μL. Plates were covered and incubated at 35 °C for 36 h without shaking. […] MIC values were recorded as the lowest concentration at which the growth was inhibited by ≥80%, equivalent to ″optically clear-to-slightly hazy″ or MIC score of 0–1 as per CLSI guidelines M27 Reference Method for Broth Dilution Antifungal Susceptibility Testing of Yeasts. […] Fluconazole (Sigma F8929) was used as internal control on each plate for all strains. All compounds were tested as two technical replicates in two to four independent biological assays, n = 4–8 final data.

[4] = tested on: Pseudomonas aeruginosa ATCC 27853 QC control strain; experiment: CO-ADD antibacterial MIC assay; type: cell-based
Procedure: as §1

[5] = tested on: Escherichia coli ATCC 25922 FDA control strain; experiment: CO-ADD antibacterial MIC assay; type: cell-based
Procedure: as §1

[6] = tested on: Acinetobacter baumannii ATCC 19606 type strain; experiment: CO-ADD antibacterial MIC assay; type: cell-based
Procedure: as §1

[7] = tested on: human red blood cells; type: cell-based; details: initial CO-ADD screening, 1 h; 10% hemolysis
Procedure: Human whole blood (Australian Red Cross) was washed three times with 3 vol of 0.9% NaCl and resuspended in a concentration of 0.5 × 10^8 cells/mL, determined by a manual cell count in a Neubauer hemocytometer. […] After incubation, the plates were centrifuged at 1000g for 10 min to pellet cells and debris; 25 μL of the supernatant was then transferred to reading plates (384-well, polystyrene plated (PS), Corning CLS3680), with hemolysis determined by measuring the supernatant absorbance at […] (OD405) using cells without inhibitors as negative control and cells with 1% Triton X-100 (Sigma T8787) as positive control. […] Melittin (Sigma M2272) was used as internal control on each plate.

[8] = tested on: HEK-293 human embryonic kidney cells ATCC CRL-1573
Procedure: The cells were incubated together with the compounds for 20 h at 37 °C in 5% CO2. […] Tamoxifen (Sigma T5648) was used as internal control on each plate.

[9] = tested on: Candida auris CBS10913 JCM 15448; experiment: Antifungal MIC assay, extended panel; type: cell-based; details: Candidozyma auris, comparator antifungals, read-out: MIC* Candida auris CBS10913
Procedure: (§2) For the fungal assays, both fungi (yeast) strains were cultured for 3 days on Yeast Extract-Peptone Dextrose (YPD; Becton Dickinson 242720) agar at 30 °C. A yeast suspension of 1 × 10^6 to 5 × 10^6 CFU/mL (as determined by OD530) was prepared from five colonies from the agar plates, subsequently diluted with Yeast Nitrogen Base media (YNB; Becton Dickinson 233520), and added to each well of the compound containing plates (384-well plates, NBS; Corning CLS3640), giving a final cell density of 2.5 × 10^3 CFU/mL and a total volume of 50 μL. Plates were covered and incubated at 35 °C for 36 h without shaking. […] MIC […] Reference Method for Broth Dilution Antifungal Susceptibility Testing of Yeasts. […] Fluconazole (Sigma F8929) was used as internal control on each plate for all strains. All compounds were tested as two technical replicates in two to four independent biological assays, n = 4–8 final data.

[10] = tested on: Candida auris CBS12373 KCTC 17810; experiment: Antifungal MIC assay, extended panel; type: cell-based; details: Candidozyma auris, comparator antifungals, read-out: MIC* Candida auris CBS12373
Procedure: as §2

[11] = initial CO-ADD dose-response screening, ≥80% growth inhibition
[12] = read-out: HEK CC50, initial CO-ADD screening, 20 h
[13] = ≥80% inhibition, converted with MW of Table S12
[14] = single concentration (32 µg/mL) CO-ADD Primary Screening, no inhibition, no dose-response

| SMILES | MIC MRSA (Sa) [1, 11] | MIC Ca [2, 11] | MIC Cn [3, 11] | MIC Pa [4, 11] | MIC Ec [5, 11] | MIC Ab [6, 11] | RBC HC10 [7] | also measured |
| --- | --- | --- | --- | --- | --- | --- | --- | --- |
| c1ccc([S][Au][PH](c2ccco2)(c2ccco2)c2ccco2)nc1 [Au-S1] | 16 µg/mL | 16 µg/mL | 16 µg/mL | – | – | – | – | – |
| FC(F)(F)c1ccnc([S][Au][PH](c2ccco2)(c2ccco2)c2ccco2)n1 [Au-S3] | 0.25 µg/mL | – | – | – | – | – | – | – |
| Cc1cccc2[n+]1[Pd-2]([Cl])([Cl])[n+]1c(C)cccc1C(C(C)(C)C)=C=C2c1ccccc1 [HM_C2] | <= 0.25 μg/mL | <= 0.25 μg/mL | <= 0.25 μg/mL | > 32 µg/mL | > 32 µg/mL | 32 µg/mL | > 32 µg/mL | HEK CC50 ([8]; initial CO-ADD screening, 20 h): 1.1 µg/mL |
| C[C@@H](c1ncncc1F)[C@](O)(Cn1cncn1)c1ccc(F)cc1F [Voriconazole, reference compound] | – | – | – | – | – | – | – | MIC ([9]; MIC = ≥80% inhibition): 4 to 8 ng/mL; MIC [9, 13]: 0.016 to 0.032 µM; MIC ([10]; MIC = ≥80% inhibition): 0.156 µg/mL; MIC [10, 13]: 0.447 µM; MIC ([2]; MIC = ≥80% inhibition): 8 ng/mL; MIC [2, 13]: 0.032 µM; MIC [3]: ≥ 64 µg/mL and ≥ 260 µM |
| COc1ccc(/C=C/C2=NN(c3ccc(C(=O)O)cc3)C(c3ccc(OC)c(OC)c3)C2)cc1OC (racemic) [Ligand-Ag1] | – | – | – | – | – | – | – | MIC Pa [4, 14]: > 32 µg/mL; MIC Ec [5, 14]: > 32 µg/mL; MIC Ab [6, 14]: > 32 µg/mL; MIC MRSA (Sa) [1, 14]: > 32 µg/mL; MIC Ca [2, 14]: > 32 µg/mL; MIC Cn [3, 14]: > 32 µg/mL |
| Cn1ccn(Cc2ccccc2)[c]1=[Au]1[S][Mo]2([S]1)[S][Au](=[c]1n(C)ccn1Cc1ccccc1)[S]2 (stereo not shown) [Au-S10] | – | 0.25 µg/mL | – | – | – | – | – | – |
| CC(=O)N1CCN(c2ccc(OCC3COC(Cn4ccnc4)(c4ccc(Cl)cc4Cl)O3)cc2)CC1 (stereo not shown) [Ketoconazole, reference compound] | – | – | – | – | – | – | – | MIC ([9]; MIC = ≥80% inhibition): 4 to 16 ng/mL; MIC [9, 13]: 0.01 to 0.042 µM; MIC ([10]; MIC = ≥80% inhibition): ≤ 0.004 µg/mL; MIC [10, 13]: ≤ 0.01 µM; MIC ([2]; MIC = ≥80% inhibition): 2 to 4 ng/mL; MIC [2, 13]: 0.005 to 0.01 µM; MIC [3]: > 64 µg/mL and > 170 µM |
| Cc1ccnc([S][Au][PH](c2ccco2)(c2ccco2)c2ccco2)n1 [Au-S2] | – | – | – | – | – | – | – | HEK CC50 ([8]; initial CO-ADD screening, 20 h): 1.38 µg/mL |
| O=C(O)c1ccc(N2N=C(/C=C/C=C/c3ccccc3)CC2/C=C/c2ccccc2)cc1 (racemic) [Ligand-Ag2] | – | – | – | – | – | – | – | MIC Pa [4, 14]: > 32 µg/mL; MIC Ec [5, 14]: > 32 µg/mL; MIC Ab [6, 14]: > 32 µg/mL; MIC MRSA (Sa) [1, 14]: > 32 µg/mL; MIC Ca [2, 14]: > 32 µg/mL; MIC Cn [3, 14]: > 32 µg/mL |
| O=C(O)c1ccc(N2N=C(/C=C/c3ccccc3)CC2c2ccccc2)cc1 (racemic) [Ligand-Ag3] | – | – | – | – | – | – | – | MIC Pa [4, 14]: > 32 µg/mL; MIC Ec [5, 14]: > 32 µg/mL; MIC Ab [6, 14]: > 32 µg/mL; MIC MRSA (Sa) [1, 14]: > 32 µg/mL; MIC Ca [2, 14]: > 32 µg/mL; MIC Cn [3, 14]: > 32 µg/mL |
| CC1=C(C)C(C)C(c2ccc(-c3ccccc3)cc2)=C1C.Cc1ccccc1NC1=[N][Ir]([Cl])[NH]C(NS(=O)(=O)c2ccc([N+](=O)[O-])cc2)=N1 [Ir2] | – | – | – | – | – | – | – | CC50 ([8]; read-out: HEK293 CC50, ranges obtained upon retesting, new batch): 62 to 65 µM |
| FC(F)(F)c1ccnc([S][Au][PH](c2ccccc2)(c2ccccc2)c2ccccc2)n1 [Au-S6] | 0.25 µg/mL | – | – | – | – | – | – | – |

Continued, in another order:

| MIC MRSA (Sa) [1, 11] | MIC Ca [2, 11] | MIC Cn [3, 11] | MIC Pa [4, 11] | MIC Ec [5, 11] | MIC Ab [6, 11] | SMILES | RBC HC10 [7] | also measured |
| --- | --- | --- | --- | --- | --- | --- | --- | --- |
| 16 µg/mL | 4 µg/mL | <= 0.25 μg/mL | > 32 µg/mL | > 32 µg/mL | > 32 µg/mL | Cc1cccc2[n+]1[Au-]([Cl])([Cl])[n+]1c(C)cccc1C(C(C)(C)C)=C=C2c1ccccc1.[Cl-] [Au-S12] | <= 0.25 μg/mL | HEK CC50 ([8]; initial CO-ADD screening, 20 h): > 32 µg/mL |
| 1.25 µM | 10 µM | 0.625 µM | > 20 µM | > 20 µM | > 20 µM | O=C([O][Eu]([O]C(=O)c1ccc(F)cc1F)[O]C(=O)c1ccc(F)cc1F)c1ccc(F)cc1F.c1ccc(-c2ccnc3c2ccc2c(-c4ccccc4)ccnc23)cc1 [Eu-S2] | 0.7 µM | CC50 [8, 12]: 15.9 µM |
| > 32 µg/mL | 16 µg/mL | 16 µg/mL | > 32 µg/mL | > 32 µg/mL | > 32 µg/mL | O=C([O][Ag])c1ccc(N2N=C(/C=C/c3ccccc3)CC2c2ccccc2)cc1.O=C([O][Ag])c1ccc(N2N=C(/C=C/c3ccccc3)CC2c2ccccc2)cc1 (racemic) [Ag3] | > 32 µg/mL | HEK CC50 ([8]; initial CO-ADD screening, 20 h): > 32 µg/mL |
| <= 0.25 μg/mL | 2 µg/mL | <= 0.25 μg/mL | > 32 µg/mL | 16 µg/mL | 32 µg/mL | CC1=CC=CC2=C(c3ccccc3)[C](=[Au]([Cl])([Cl])[Cl])C(c3ccccc3)(c3cccc(C)n3)N12 (stereo not shown) [Au-S13] | 19.3 µg/mL | HEK CC50 ([8]; initial CO-ADD screening, 20 h): > 32 µg/mL |
| > 20 µM | > 20 µM | 20 µM | > 20 µM | > 20 µM | > 20 µM | O=C([O][Eu]([O]C(=O)c1ccc(F)cc1F)[O]C(=O)c1ccc(F)cc1F)c1ccc(F)cc1F.c1cnc2c(c1)ccc1cccnc12 [Eu-S5] | 0.5 µM | CC50 [8, 12]: 13.6 µM |
